Experimental data from patent US7300946B2, “N-(substituted arylmethyl)-4-(disubstituted methyl) piperidines and pyridines” (Bayer CropScience AG, priority 2002, dated 2007).

Test system: tobacco budworm (Heliothis virescens [Fabricius])
Experiment: surface-treated diet test against the tobacco budworm
Assay type: in vivo
Settings: tobacco budworm second instar larvae, 0.25 millimoles of candidate insecticide on the surface of the diet, five-day exposure; for Percent Mortality: compared to total number of insects infested; for Percent Growth Inhibition: inhibition of insect weight relative to untreated controls
How it was run: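 Wheat germ artificial diet surface-treated with 40 µL of 50 mM DMSO stock diluted 1:7 in 1:1 water/acetone (0.25 millimolar on diet), or sub-multiples for rate tests. One second-instar larva per well, 25° C, 60% RH, 5 days; percent weight inhibition vs DMSO controls and percent mortality.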

Structure (SMILES) | Percent Mortality [%] | Percent Growth Inhibition [%]
CC(C)OC(=O)Nc1ccc(CN2CCC(=C(c3ccccc3)c3ccccc3)CC2)cc1 [Compound 793] | 0 | 76
CC(C)OC(=O)Nc1ccc(CN2CCC(=C(c3ccc(F)cc3)c3ccc(F)cc3)CC2)cc1 [Compound 794] | 83 | 100
CC(C)OC(=O)Nc1ccc(CN2CCC(=C(c3ccc(Cl)c(Cl)c3)c3ccc(Cl)c(Cl)c3)CC2)cc1 [Compound 795] | 50 | 94
CC(C)OC(=O)Nc1ccc(CN2CCC(=C(c3ccc(Cl)c(F)c3)c3ccc(Cl)c(F)c3)CC2)cc1 [Compound 796] | 100 | 100
C=CCOC(=O)Nc1ccc(CN2CCC(=C(c3ccc(C(F)(F)F)cc3)c3ccc(C(F)(F)F)cc3)CC2)cc1 [Compound 797] | 100 | 100
CC=CCOC(=O)Nc1ccc(CN2CCC(=C(c3ccc(Cl)cc3)c3ccc(Cl)cc3)CC2)cc1 [Compound 798] | 0 | 59
CC=CCOC(=O)Nc1ccc(CN2CCC(=C(c3ccc(C(F)(F)F)cc3)c3ccc(C(F)(F)F)cc3)CC2)cc1 [Compound 799] | 0 | 83
C=C(C)COC(=O)Nc1ccc(CN2CCC(=C(c3ccc(Cl)cc3)c3ccc(Cl)cc3)CC2)cc1 [Compound 800] | 0 | 86
C#CCOC(=O)Nc1ccc(CN2CCC(=C(c3ccc(Cl)cc3)c3ccc(Cl)cc3)CC2)cc1 [Compound 801] | 100 | 100
C#CCOC(=O)Nc1ccc(CN2CCC(=C(c3ccc(C(F)(F)F)cc3)c3ccc(C(F)(F)F)cc3)CC2)cc1 [Compound 802] | 100 | 100
CS(=O)(=O)Oc1ccc(CN2CCC(=C(c3ccc(C(F)(F)F)cc3)c3ccc(C(F)(F)F)cc3)CC2)cc1 [Compound 803] | 100 | 100
CC(C)S(=O)(=O)Oc1ccc(CN2CCC(=C(c3ccc(C(F)(F)F)cc3)c3ccc(C(F)(F)F)cc3)CC2)cc1 [Compound 804] | 100 | 100
CS(=O)(=O)Nc1ccc(CN2CCC(=C(c3ccc(C(F)(F)F)cc3)c3ccc(C(F)(F)F)cc3)CC2)cc1 [Compound 805] | 33 | 100
Fc1ccccc1Oc1ccc(CN2CCC(=C(c3ccc(C(F)(F)F)cc3)c3ccc(C(F)(F)F)cc3)CC2)cc1 [Compound 806] | 0 | 100
FC(F)(F)c1ccc(C(=C2CCN(Cc3ccc(-c4ccccn4)cc3)CC2)c2ccc(C(F)(F)F)cc2)cc1 [Compound 807] | 100 | 100
c1ccc(C(=C2CCN(Cc3ccc(Oc4ccccn4)cc3)CC2)c2ccccc2)cc1 [Compound 808] | 0 | 64
Clc1ccc(C(=C2CCN(Cc3ccc(Oc4ccccn4)cc3)CC2)c2ccc(Cl)cc2)cc1 [Compound 809] | 100 | 100
Fc1ccc(C(=C2CCN(Cc3ccc(Oc4ccccn4)cc3)CC2)c2ccc(F)cc2)cc1 [Compound 810] | 100 | 100
FC(F)(F)c1ccc(C(=C2CCN(Cc3ccc(Nc4ccccn4)cc3)CC2)c2ccc(C(F)(F)F)cc2)cc1 [Compound 811] | 100 | 100
Clc1ccc(C(=C2CCN(Cc3ccc(Oc4ncccn4)cc3)CC2)c2ccc(Cl)cc2)cc1 [Compound 812] | 100 | 100
Clc1ccc(C(=C2CCN(Cc3ccc(Oc4ncccn4)cc3)CC2)c2ccc(Cl)c(Cl)c2)cc1Cl [Compound 813] | 100 | 100
FC(F)(F)c1ccc(C(=C2CCN(Cc3ccc(Oc4ncccn4)cc3)CC2)c2ccccc2Cl)cc1 [Compound 814] | 100 | 100

Structure (SMILES) | Percent Mortality [%] | Percent Growth Inhibition [%]
FC(F)(F)c1ccc(C(=C2CCN(Cc3ccc(Oc4ncccn4)cc3)CC2)c2cccc(Cl)c2)cc1 [Compound 815] | 100 | 100
FC(F)(F)c1ccc(C(=C2CCN(Cc3ccc(Oc4ncccn4)cc3)CC2)c2ccc(Cl)cc2)cc1 [Compound 816] | 100 | 100
Fc1cccc(C(=C2CCN(Cc3ccc(Oc4ncccn4)cc3)CC2)c2ccc(C(F)(F)F)cc2)c1 [Compound 817] | 100 | 100
FC(F)(F)c1ccc(C(=C2CCN(Cc3ccc(Oc4ncccn4)cc3)CC2)c2ccc(Cl)c(Cl)c2)cc1 [Compound 818] | 100 | 100
FC(F)(F)c1ccc(C(=C2CCN(Cc3ccc(Oc4ncccn4)cc3)CC2)c2cc(Cl)cc(Cl)c2)cc1 [Compound 819] | 50 | 100
Fc1cc(F)cc(C(=C2CCN(Cc3ccc(Oc4ncccn4)cc3)CC2)c2ccc(C(F)(F)F)cc2)c1 [Compound 820] | 50 | 92
Fc1cc(C(=C2CCN(Cc3ccc(Oc4ncccn4)cc3)CC2)c2ccc(C(F)(F)F)cc2)ccc1Cl [Compound 821] | 100 | 100
FC(F)(F)c1ccc(C(=C2CCN(Cc3ccc(Oc4ncccn4)cc3)CC2)c2cccc(C(F)(F)F)c2)cc1 [Compound 822] | 100 | 100
FC(F)(F)c1ccc(C(=C2CCN(Cc3ccc(OC4=NCCCN4)cc3)CC2)c2ccc(C(F)(F)F)cc2)cc1 [Compound 823] | 67 | 100
FC(F)(F)c1ccc(C(=C2CCN(Cc3ccc(Oc4ncccn4)cc3)CC2)c2ccc(C(F)(F)F)cc2)cc1 [Compound 824] | 100 | 100
FC(F)(F)c1ccc(C(=C2CCN(Cc3ccc(Oc4cnccn4)cc3)CC2)c2ccc(C(F)(F)F)cc2)cc1 [Compound 825] | 83 | 100
FC(F)(F)c1ccc(C(=C2CCN(Cc3ccc(Oc4ccc(Cl)nn4)cc3)CC2)c2ccc(C(F)(F)F)cc2)cc1 [Compound 826] | 100 | 100
CNC(=O)Oc1ccc(C[N+]2([O-])CCC(=C(c3ccc(Cl)cc3)c3ccc(Cl)cc3)CC2)cc1 (stereo not shown) [Compound 827] | 100 | 100
CNC(=O)Oc1ccc(C[N+]2([O-])CCC(=C(c3ccc(C(F)(F)F)cc3)c3ccc(C(F)(F)F)cc3)CC2)cc1 (stereo not shown) [Compound 828] | 100 | 100
CNC(=O)Oc1ccc(C[N+]2([O-])CCC(=C(c3ccc(OC(F)(F)F)cc3)c3ccc(OC(F)(F)F)cc3)CC2)cc1 (stereo not shown) [Compound 829] | 100 | 100
CC(C)NC(=O)Oc1ccc(C[N+]2([O-])CCC(=C(c3ccc(C(F)(F)F)cc3)c3ccc(C(F)(F)F)cc3)CC2)cc1 (stereo not shown) [Compound 830] | 100 | 100
CC(C)OC(=O)Nc1ccc(C[N+]2([O-])CCC(=C(c3ccc(Cl)cc3)c3ccc(Cl)cc3)CC2)cc1 (stereo not shown) [Compound 831] | 100 | 100
CC(C)OC(=O)Nc1ccc(C[N+]2([O-])CCC(=C(c3ccc(F)cc3)c3ccc(F)cc3)CC2)cc1 (stereo not shown) [Compound 832] | 83 | 100
CC(C)OC(=O)Nc1ccc(C[N+]2([O-])CCC(=C(c3ccc(Cl)c(Cl)c3)c3ccc(Cl)c(Cl)c3)CC2)cc1 (stereo not shown) [Compound 833] | 100 | 100
CC(C)OC(=O)Nc1ccc(C[N+]2([O-])CCC(=C(c3ccc(Cl)c(F)c3)c3ccc(Cl)c(F)c3)CC2)cc1 (stereo not shown) [Compound 834] | 100 | 100
COc1ccc(C(=C2CC[N+]([O-])(Cc3ccc(NC(=O)OC(C)C)cc3)CC2)c2ccc(OC)cc2)cc1 (stereo not shown) [Compound 835] | 0 | 80
C=CCOC(=O)Nc1ccc(C[N+]2([O-])CCC(=C(c3ccc(C(F)(F)F)cc3)c3ccc(C(F)(F)F)cc3)CC2)cc1 (stereo not shown) [Compound 836] | 100 | 100
